In patent publication US6689798B2, “Benzofuran derivatives” (Daiichi Pharmaceutical Co., Ltd., priority 2000, dated 2004):
Where a name gives a salt, the structure may show the parent alone.

Legend:
[1] = molecular target: T1, steroid 17α-hydroxylase and/or steroid C17-20 lyase (Rattus norvegicus, UniProt P11715); experiment: Measurement of steroid 17α-hydroxylase and/or steroid C17-20 lyase inhibitory activity (rat testis microsome); type: biochemical; conditions: test compound 300 nM, substrate 25 μM 17α-hydroxyprogesterone, NADPH 500 μM
T1 construct: the testis of rats (SD, male) was homogenized and centrifuged to obtain microsome; from tissue; host or cells: rat (SD, male) testis microsomes
T1 sequence (P11715 1-507): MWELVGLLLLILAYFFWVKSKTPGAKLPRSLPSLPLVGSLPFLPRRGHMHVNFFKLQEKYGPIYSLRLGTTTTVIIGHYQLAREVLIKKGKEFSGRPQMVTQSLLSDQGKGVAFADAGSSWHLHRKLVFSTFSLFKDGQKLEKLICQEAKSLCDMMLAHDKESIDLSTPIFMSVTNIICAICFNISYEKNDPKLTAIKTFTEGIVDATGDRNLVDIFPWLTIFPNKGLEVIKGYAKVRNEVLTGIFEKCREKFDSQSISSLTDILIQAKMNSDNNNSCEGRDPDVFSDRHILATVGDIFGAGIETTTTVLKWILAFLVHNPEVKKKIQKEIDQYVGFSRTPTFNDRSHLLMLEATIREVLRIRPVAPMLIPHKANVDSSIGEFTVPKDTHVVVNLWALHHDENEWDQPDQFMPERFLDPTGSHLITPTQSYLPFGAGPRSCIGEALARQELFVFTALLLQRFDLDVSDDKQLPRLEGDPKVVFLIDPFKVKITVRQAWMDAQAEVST
Description: An experiment was carried out according to the method of T. Sergejew and R. W.
Hartmann (J. Enzyme Inhibition, 8, 113 (1994)). That is, the testis of rats (SD, male) was homogenized and centrifuged to obtain microsome. Each compound of the present invention prepared in Examples 1-13 was put into a micro tube (1.5 ml, Eppendorf Co.). After the addition of 100 μl of microsome protein solution, the concentration of which was adjusted to 0.1 mg/ml using 50 mM phosphate buffer solution (pH 7.4), 140 μl of 125 nmol NADPH solution, and 10 μl of 6.25 nmol 17α-hydroxyprogesterone, the mixture was incubated at 37° C. for 20 minutes. 50 μl of 1N hydrochloric acid and 1000 μl of ethyl acetate were sequentially added to the mixture. The mixture was shaken and centrifuged. The ethyl acetate layer was then washed with 250 μl of 50 mM phosphate buffer solution (pH 7.4) and 50 μl of IN hydrochloric acid, centrifuged, and concentrated. The concentrate was dissolved in 100 μl of acetonitrile. 10 μl of this solution was charged to high performance liquid chromatography. The amounts of the substrate and the formed product (androstenedione and testosterone) were measured to determine the enzyme activity. A sample without the test compound added was provided as a control. Steroid 17α-hydroxylase and/or steroid C17-20 lyase inhibitory activity (%) was calculated from the amounts of each substrate and product using the following equation (1). [formula]

| SMILES | inhibition at 0.3 µM [1] | melting point |
| --- | --- | --- |
| Nc1cccc(-c2ccc3c(-c4cccnc4)coc3c2)c1 [Example 6, 3-[3-(3-pyridyl)benzo[b]furan-6-yl]phenylamine] | 90% | – |
| Oc1cccc(-c2ccc3c(-c4cccnc4)coc3c2)c1 [Example 11, 3-[3-(3-pyridyl)benzo[b]furan-6-yl]phenol] | 81% | – |
| Oc1ccc(-c2ccc3c(-c4cccnc4)coc3c2)cc1O [Example 12, 4-[3-(3-pyridyl)benzo[b]furan-6-yl]-1,2-benzenediol hydrobromide] | 66% | – |
| c1cncc(-c2coc3cc(-c4ccsc4)ccc23)c1 [Example 13, 3-[6-(3-thienyl)benzo[b]furan-3-yl]pyridine hydrochloride] | 89% | – |
| Fc1cccc(-c2ccc3c(-c4cccnc4)coc3c2)c1 [Example 4, 3-[6-(3-fluorophenyl)benzo[b]furan-3-yl] Pyridine] | 45% | – |
| Fc1ccc(-c2ccc3c(-c4cccnc4)coc3c2)cc1 [Example 3, 3-[6-(4-fluorophenyl)benzo[b]furan-3-yl] Pyridine] | 64% | – |
| c1cncc(-c2ccc3c(-c4cccnc4)coc3c2)c1 [Example 7, 3-[6-(3-pyridyl)benzo[b]furan-3-yl]pyridine] | 75% | 140.5 to 141.5 °C |
| c1ccc(-c2ccc3c(-c4cccnc4)coc3c2)cc1 [Example 9, 3-(6-phenylbenzo[b]furan-3-yl)pyridine] | 45% | – |
